Converted amounts (≈) assume the structure as drawn. Like-named read-outs stand apart in the source and are kept apart here.
Tests used:
Experiment in all cases: MIC, antimicrobial activity
Proteus inconstans In-27 = format: cell-based; details: for Minimum Inhibitory Concentration (MIC): Proteus inconstans In-27, tobramycin resistant strain; for MIC: Providencia alcalifaciens, IN27, read-out: Minimum Inhibitory Concentration (MIC), Proteus inconstans In-27, tobramycin resistant strain
[1] = tested on: Staphylococcus aureus FDAJC; details: for Minimum Inhibitory Concentration (MIC): Staphylococcus aureus FDAJC; for MIC: Staphylococcus aureus, read-out: Minimum Inhibitory Concentration (MIC), Staphylococcus aureus FDAJC
[2] = tested on: Escherichia coli W-677/JR-762; details: for Minimum Inhibitory Concentration (MIC): Escherichia coli W-677/JR-762, tobramycin resistant strain; for MIC: Escherichia coli, W677/JR762, read-out: Minimum Inhibitory Concentration (MIC), Escherichia coli W-677/JR-762, tobramycin resistant strain
[3] = tested on: Serratia marcescens ATCC 13880; details: for MIC: Serratia marcescens
[4] = tested on: Enterobacter cloacae TB-718; format: cell-based; details: for Minimum Inhibitory Concentration (MIC): Enterobacter cloacae TB-718; for MIC: Enterobacter cloacae, TB718, Enterobacter cloacae TB-718, read-out: Minimum Inhibitory Concentration (MIC)
[5] = tested on: Escherichia coli NIHJ JC-2; details: for Minimum Inhibitory Concentration (MIC): Escherichia coli NIHJ JC-2; for MIC: Escherichia coli
Proteus mirabilis TB-617 = format: cell-based; details: for Minimum Inhibitory Concentration (MIC): Proteus mirabilis TB-617; for MIC: Proteus mirabilis, TB617, Proteus mirabilis TB-617, read-out: Minimum Inhibitory Concentration (MIC)
Proteus rettgeri Ret 40 = details: for Minimum Inhibitory Concentration (MIC): Proteus rettgeri Ret 40; for MIC: Providencia rettgeri, RET40, read-out: Minimum Inhibitory Concentration (MIC), Proteus rettgeri Ret 40
[6] = tested on: Pseudomonas aeruginosa PP-6; details: for Minimum Inhibitory Concentration (MIC): Pseudomonas aeruginosa PP-6, tobramycin resistant strain; for MIC: Pseudomonas aeruginosa
[7] = tested on: Klebsiella pneumoniae Kl-38; details: for Minimum Inhibitory Concentration (MIC): Klebsiella pneumoniae Kl-38; for MIC: Klebsiella pneumoniae
[8] = tested on: Pseudomonas aeruginosa Ps-24; details: for Minimum Inhibitory Concentration (MIC): Pseudomonas aeruginosa Ps-24; for MIC: Pseudomonas aeruginosa
[9] = ATCC13880, read-out: Minimum Inhibitory Concentration (MIC), Serratia marcescens ATCC 13880
[10] = ATCC13880, read-out: Minimum Inhibitory Concentration (MIC)
[11] = PP6, read-out: Minimum Inhibitory Concentration (MIC), Pseudomonas aeruginosa PP-6, tobramycin resistant strain
[12] = NIHJJC2, read-out: Minimum Inhibitory Concentration (MIC), Escherichia coli NIHJ JC-2
[13] = KL38, read-out: Minimum Inhibitory Concentration (MIC), Klebsiella pneumoniae Kl-38
[14] = PS24, read-out: Minimum Inhibitory Concentration (MIC), Pseudomonas aeruginosa Ps-24
[15] = KL38, read-out: Minimum Inhibitory Concentration (MIC)
[16] = PP6, read-out: Minimum Inhibitory Concentration (MIC)
[17] = NIHJJC2, read-out: Minimum Inhibitory Concentration (MIC)

SMILES | Minimum Inhibitory Concentration (MIC) [1] [µg/mL] | Minimum Inhibitory Concentration (MIC) [2] [µg/mL] | MIC [3, 9] [µg/mL] | Minimum Inhibitory Concentration (MIC) [4] [µg/mL] | Minimum Inhibitory Concentration (MIC) [5] [µg/mL] | Minimum Inhibitory Concentration (MIC) (Proteus mirabilis TB-617) [µg/mL] | Minimum Inhibitory Concentration (MIC) (Proteus rettgeri Ret 40) [µg/mL] | Minimum Inhibitory Concentration (MIC) [7] [µg/mL] | Minimum Inhibitory Concentration (MIC) [8] [µg/mL] | MIC (Proteus inconstans In-27) [µg/mL] | MIC [1] [µg/mL] | MIC [3, 10] [µg/mL] | MIC [6, 11] [µg/mL] | MIC [2] [µg/mL] | MIC [4] [µg/mL] | MIC [5, 12] [µg/mL] | MIC (Proteus mirabilis TB-617) [µg/mL] | MIC (Proteus rettgeri Ret 40) [µg/mL] | MIC [7, 13] [µg/mL] | MIC [8, 14] [µg/mL] | also measured
NC[C@H]1O[C@H](O[C@H]2[C@H](O)[C@@H](O[C@H]3O[C@H](CO)[C@@H](O)[C@H](N)[C@H]3O)[C@H](NC(=O)C(O)C3CNCCN3)C[C@@H]2N)[C@H](N)C[C@@H]1O (single isomer, unassigned) [(9), 1-N-[2-hydroxy-2-(piperazin-2-yl)acetyl]tobramycin] | 0.1 | 25.0 | 100 (≈ 164 µM) | 12.5 | 25.0 | 6.2 | 3.1 | 6.2 | 3.1 | – | – | – | – | – | – | – | – | – | – | – | Minimum Inhibitory Concentration (MIC) (Proteus inconstans In-27): > 100.0 µg/mL; Minimum Inhibitory Concentration (MIC) [6]: 25.0 µg/mL
NC[C@H]1O[C@H](O[C@H]2[C@H](O)[C@@H](O[C@H]3O[C@H](CO)[C@@H](O)[C@H](N)[C@H]3O)[C@H](NC(=O)C(O)C3CNCCN3)C[C@@H]2N)[C@H](N)C[C@@H]1O (single isomer, unassigned) [(8), 1-N-[2-hydroxy-2-(piperazin-2-yl)acetyl]tobramycin] | – | 3.1 | – | 0.8 | 1.6 | 1.6 | 0.8 | 0.8 | 0.8 | 100 (≈ 164 µM) | 0.1 (≈ 0.164 µM) | 25 (≈ 41 µM) | 12.5 (≈ 20.5 µM) | – | – | – | – | – | – | – | –
NC[C@H]1O[C@H](O[C@H]2[C@H](O)[C@@H](O[C@H]3O[C@H](CO)[C@@H](O)[C@H](N)[C@H]3O)[C@H](NC(=O)C(O)C3CCCNC3)C[C@@H]2N)[C@H](N)C[C@@H]1O (stereo partly shown) [(4), 1-N-[2-hydroxy-2-(piperidin-3-yl)acetyl]tobramycin] | – | – | – | – | – | – | – | – | – | > 100 | 0.1 (≈ 0.164 µM) | 25 (≈ 41.1 µM) | 25 (≈ 41.1 µM) | > 100 | 1.6 (≈ 2.63 µM) | 1.6 (≈ 2.63 µM) | 3.1 (≈ 5.09 µM) | 1.6 (≈ 2.63 µM) | 1.6 (≈ 2.63 µM) | 12.5 (≈ 20.5 µM) | –
NC[C@H]1O[C@H](O[C@H]2[C@H](O)[C@@H](O[C@H]3O[C@H](CO)[C@@H](O)[C@H](N)[C@H]3O)[C@H](NC(=O)C(O)C3CCCN3)C[C@@H]2N)[C@H](N)C[C@@H]1O (stereo partly shown) [(7), 1-N-[2-hydroxy-2-(pyrrolidin-2-yl)acetyl]tobramycin] | 0.4 | 100.0 | – | 25.0 | 50.0 | 12.5 | 6.2 | – | – | – | – | – | – | – | – | – | – | – | – | – | Minimum Inhibitory Concentration (MIC) (Proteus inconstans In-27): > 100.0 µg/mL; Minimum Inhibitory Concentration (MIC) ([3]; Serratia marcescens ATCC 13880): > 100.0 µg/mL; Minimum Inhibitory Concentration (MIC) [6]: 50.0 µg/mL; MIC [7, 15]: 12.5 µg/mL (≈ 21 µM); MIC ([8]; PS24, read-out: Minimum Inhibitory Concentration (MIC)): 12.5 µg/mL (≈ 21 µM)
NC[C@H]1O[C@H](O[C@H]2[C@H](O)[C@@H](O[C@H]3O[C@H](CO)[C@@H](O)[C@H](N)[C@H]3O)[C@H](NC(=O)C(O)C3CCN3)C[C@@H]2N)[C@H](N)C[C@@H]1O (stereo partly shown) [(2), 1-N-[2-hydroxy-2-(azetidin-2-yl)acetyl]tobramycin] | – | – | – | – | – | – | – | – | – | > 100 | 0.1 (≈ 0.172 µM) | 50 (≈ 86.1 µM) | 12.5 (≈ 21.5 µM) | 6.2 (≈ 10.7 µM) | 3.1 (≈ 5.34 µM) | 6.2 (≈ 10.7 µM) | 3.1 (≈ 5.34 µM) | 0.8 (≈ 1.38 µM) | 1.6 (≈ 2.76 µM) | 1.6 (≈ 2.76 µM) | –
NC[C@H]1O[C@H](O[C@H]2[C@H](O)[C@@H](O[C@H]3O[C@H](CO)[C@@H](O)[C@H](N)[C@H]3O)[C@H](NC(=O)C(O)C3CCCN3)C[C@@H]2N)[C@H](N)C[C@@H]1O (stereo partly shown) [(6), 1-N-[2-hydroxy-2-(pyrrolidin-2-yl)acetyl]tobramycin] | 0.1 | 3.1 | – | 0.8 | 0.8 | 0.8 | 0.2 | 0.8 | 1.6 | – | – | 25 (≈ 42 µM) | – | – | – | – | – | – | – | – | Minimum Inhibitory Concentration (MIC) (Proteus inconstans In-27): > 100.0 µg/mL; MIC [6, 16]: 6.2 µg/mL (≈ 10.4 µM)
NC[C@H]1O[C@H](O[C@H]2[C@H](O)[C@@H](O[C@H]3O[C@H](CO)[C@@H](O)[C@H](N)[C@H]3O)[C@H](NC(=O)C(O)C3CCNC3)C[C@@H]2N)[C@H](N)C[C@@H]1O (stereo partly shown) [(1), 1-N-[2-hydroxy-2-(pyrrolidin-3-yl)acetyl]tobramycin] | – | – | 12.5 (≈ 21 µM) | – | – | – | – | – | – | 100 (≈ 168 µM) | 0.1 (≈ 0.168 µM) | – | – | 6.2 (≈ 10.4 µM) | 1.6 (≈ 2.69 µM) | 1.6 (≈ 2.69 µM) | 3.1 (≈ 5.21 µM) | 0.8 (≈ 1.35 µM) | 0.8 (≈ 1.35 µM) | 1.6 (≈ 2.69 µM) | MIC [6, 16]: 3.1 µg/mL (≈ 5.21 µM)
NC[C@H]1O[C@H](O[C@H]2[C@H](O)[C@@H](O[C@H]3O[C@H](CO)[C@@H](O)[C@H](N)[C@H]3O)[C@H](NC(=O)C(O)C3CNC3)C[C@@H]2N)[C@H](N)C[C@@H]1O (stereo partly shown) [(3), 1-N-[2-hydroxy-2-(azetidin-3-yl)acetyl]tobramycin] | – | – | – | – | – | – | – | – | – | 50 (≈ 86.1 µM) | 0.1 (≈ 0.172 µM) | 6.2 (≈ 10.7 µM) | – | 1.6 (≈ 2.76 µM) | 0.4 (≈ 0.689 µM) | 0.4 (≈ 0.689 µM) | 0.8 (≈ 1.38 µM) | 0.4 (≈ 0.689 µM) | 0.4 (≈ 0.689 µM) | 0.4 (≈ 0.689 µM) | MIC [6, 16]: 1.6 µg/mL (≈ 2.76 µM)
NC[C@H]1O[C@H](O[C@H]2[C@H](O)[C@@H](O[C@H]3O[C@H](CO)[C@@H](O)[C@H](N)[C@H]3O)[C@H](N)C[C@@H]2N)[C@H](N)C[C@@H]1O [TOB, tobramycin, reference compound] | – | – | 3.13 (≈ 6.69 µM) | – | – | – | – | – | – | – | 0.05 (≈ 0.107 µM) | – | 50 (≈ 107 µM) | – | – | – | – | 0.39 (≈ 0.834 µM) | – | 0.39 (≈ 0.834 µM) | MIC [5, 17]: 0.78 µg/mL (≈ 1.67 µM); MIC [7, 15]: 3.13 µg/mL (≈ 6.69 µM)
NC[C@H]1O[C@H](O[C@H]2[C@H](O)[C@@H](O[C@H]3O[C@H](CO)[C@@H](O)[C@H](N)[C@H]3O)[C@H](NC(=O)C(O)C3CCCN3)C[C@@H]2N)[C@H](N)C[C@@H]1O (stereo partly shown) [(5), 1-N-[2-hydroxy-2-(pyrrolidin-2-yl)acetyl]tobramycin] | 0.1 | 25.0 | 100 (≈ 168 µM) | 6.2 | – | 6.2 | 3.1 | 6.2 | 6.2 | > 100 | – | – | 25 (≈ 42 µM) | – | – | – | – | – | – | – | MIC [5, 17]: 12.5 µg/mL (≈ 21 µM)

Reference: patent US4200628A, “Novel aminoglycoside derivatives” (Shionogi & Co., Ltd., priority 1977, dated 1980)
